Measured values: patent publication US4241083A, “Germicidal composition for agriculture and horticulture” (priority 1978, dated 1980)

Experiments:
[1] = tested on: Colletotrichum lagenarium; test: Growth of germs on potato dextrose-agar medium containing the compound (Ex. 9, germ of anthracnose on cucumbers); assay type: cell-based; set-up: key: +++: extremely much growth; ++: much growth; +: a little growth; -: no growth; details: two weeks, 25° C.
Experimental: (§1) Ethyl 2-(2-hydroxyethylamino)-3-benzoylpropionate hydrochloride was added to potato dextrose-agar culture medium in the concentration indicated in Table 1 and the suspensions of various kinds of germs were dropped on the culture medium. After incubation of the germs for two weeks in thermostat (25° C.), the growing conditions were observed.
(§2) In Table 1, +++, ++, + and - represent "extremely much growth", "much growth", "a little growth" and "no growth" respectively.
^1 Germ of anthracnose on cucumbers

[2] = tested on: Pyrenochaeta sp.; test: Growth of germs on potato dextrose-agar medium containing the compound (Ex. 14); assay type: cell-based; set-up: key: +++: extremely much growth; ++: much growth; +: a little growth; -: no growth; details: two weeks, 25° C.
Experimental: as §1, §2

[3] = tested on: Alternaria solani; test: Growth of germs on potato dextrose-agar medium containing the compound (Ex. 6); assay type: cell-based; set-up: key: +++: extremely much growth; ++: much growth; +: a little growth; -: no growth; details: two weeks, 25° C.
Experimental: as §1, §2

[4] = tested on: Verticillium alboatrum; test: Growth of germs on potato dextrose-agar medium containing the compound (Ex. 2); assay type: cell-based; set-up: key: +++: extremely much growth; ++: much growth; +: a little growth; -: no growth; details: two weeks, 25° C.
Experimental: as §1, §2

[5] = tested on: Valsa ceratosperma; test: Length of disease spots on cut apple branches immersed in germicide before inoculation (Ex. 16); assay type: in vivo; details: 25° C.
Experimental: (§3) Branches of Delicious apple (branch diameter: about 1 cm. thick) grown for 1-2 years were cut to 10 cm. length. The cut branches were dried in a low temperature chamber (3° C.) until the water content of the cut branches became 50%. The dried cut branches were immersed in an aqueous solution of ethyl 2-(2-hydroxyethylamino)-3-benzoylpropionate hydrochloride (500 ppm, 1000 ppm and 2500 ppm) for one minute and then dried.
(§4) Each cut branch was end bored by a white heated 8 mm diameter cork borer. Valsa ceratosperma, previously cultured for four days on a potato dextrose-agar culture medium, was introduced into the branch by inoculating the branch with the Valsa ceratosperma containing culture by means of the sterilized cork borer. The branches prepared in this way were placed on wet filter paper spread in a polyethylene tray. The tray was inserted into a polyethylene bag which was sealed and then the bag was put into a thermostat (25° C.) for various controlled times.
(§5) After removal from the thermostat, the length of disease spots on each branch was measured.
A similar experiment for comparison was carried out using Benomyl, i.e. methyl-1-(buthylcarbamoyl)-2-benzimidazole carbamate as the germicide. The results of the comparative experiment and also a control experiment, in which the dried cut branches were not immersed in germicide (blank), are also shown in Table 2.

[6] = tested on: Sphaerotheca fuliginea; test: Prevention effect for powdery mildew on cucumbers (Ex. 20, 21); assay type: in vivo; details: Table 5; for Germicidal damage to seedlings: cucumber seedlings; for Percentage of leaf area with disease spots / Percentage of leaves attacked with the disease / Prevention value per leaf (Perfect prevention = 100): third and ninth days, read fifteenth day after inoculation
Experimental: The prevention effect for powdery mildew on cucumbers caused by Sphaerotheca fuliginea was examined in the following manner.
Cucumber seedlings (bifoliate age) of Tokiwa Hikari No. 3 (p type) variety planted in sections of two rows of three were inoculated with the above germ by brushing on spores from a cucumber leaf attacked with powdery mildew. […]
The leaf area on which powdery mildew spots appeared was measured on the fifteenth day after the seedlings were inoculated with the germ. The spotted area is expresses as a prevention value.
The same experiment as Example 20 was carried out except that isopropyl 2-(2-hydroxyethylamino)-3-benzoyl-propionate hydrochloride was used instead of ethyl 2-(2-hydroxyethylamino)-3-benzoylpropionate hydrochloride.

[7] = tested on: Phomopsis vexans; test: Growth of germs on potato dextrose-agar medium containing the compound (Ex. 11); assay type: cell-based; set-up: key: +++: extremely much growth; ++: much growth; +: a little growth; -: no growth; details: two weeks, 25° C.
Experimental: as §1, §2

[8] = tested on: Valsa ceratosperma; test: Length of disease spots on apple branches treated on the third day after inoculation (Ex. 17); assay type: in vivo; details: 1000 ppm on third day after inoculation
Experimental: as §3, §4, §5
The same experiment as in Example 16 was carried out except that the apple branches were treated with the germicides (1000 ppm) on the third day after the branches were inoculated with the germ. The lengths of disease spots on the third day […], fifth day and seventh day were 5.1 mm, 5.2 mm and 5.2 mm respectively.

[9] = tested on: Fusarium oxysporum f. lycopersici; test: Growth of germs on potato dextrose-agar medium containing the compound (Ex. 8); assay type: cell-based; set-up: key: +++: extremely much growth; ++: much growth; +: a little growth; -: no growth; details: two weeks, 25° C.
Experimental: as §1, §2

[10] = tested on: Stemphylium lycopersici; test: Growth of germs on potato dextrose-agar medium containing the compound (Ex. 7); assay type: cell-based; set-up: key: +++: extremely much growth; ++: much growth; +: a little growth; -: no growth; details: two weeks, 25° C.
Experimental: as §1, §2

[11] = tested on: Valsa ceratosperma; test: Growth of germs on potato dextrose-agar medium containing the compound (Ex. 1); assay type: cell-based; set-up: key: +++: extremely much growth; ++: much growth; +: a little growth; -: no growth; details: two weeks, 25° C.
Experimental: as §1, §2

[12] = tested on: Sclerotinia sclerotiorum; test: Growth of germs on potato dextrose-agar medium containing the compound (Ex. 12); assay type: cell-based; set-up: key: +++: extremely much growth; ++: much growth; +: a little growth; -: no growth; details: two weeks, 25° C.
Experimental: as §1, §2

[13] = tested on: Cercospora kikuchii; test: Growth of germs on potato dextrose-agar medium containing the compound (Ex. 15); assay type: cell-based; set-up: key: +++: extremely much growth; ++: much growth; +: a little growth; -: no growth; details: two weeks, 25° C.
Experimental: as §1, §2

For `CCOC(=O)C(CC(=O)c1ccccc1)NCCO.Cl` (stereo not shown) [Ethyl 2-(2-hydroxyethylamino)-3-benzoylpropionate hydrochloride], the “growing conditions (growth of germ)” value ([1]; 10 ppm) was “+++”, the “growing conditions (growth of germ)” value ([1]; 20 ppm) was “-” and the “growing conditions (growth of germ)” value ([1]; 50 ppm) was “-”. The “growing conditions (growth of germ)” value ([1]; 100 ppm) was “-”, the “growing conditions (growth of germ)” value ([1]; 200 ppm) was “-” and the “growing conditions (growth of germ)” value ([2]; 10 ppm) was “++”. For the same compound, the “growing conditions (growth of germ)” value ([2]; 20 ppm) was “++”, the “growing conditions (growth of germ)” value ([2]; 50 ppm) was “-” and the “growing conditions (growth of germ)” value ([2]; 100 ppm) was “-”. The “growing conditions (growth of germ)” value ([2]; 200 ppm) was “-”, the “growing conditions (growth of germ)” value ([3]; 10 ppm) was “++” and the “growing conditions (growth of germ)” value ([3]; 20 ppm) was “-”. For the same compound, the “growing conditions (growth of germ)” value ([3]; 50 ppm) was “-”, the “growing conditions (growth of germ)” value ([3]; 100 ppm) was “-” and the “growing conditions (growth of germ)” value ([3]; 200 ppm) was “-”. For the same compound, the “growing conditions (growth of germ)” value ([4]; 10 ppm) was “+++”, the “growing conditions (growth of germ)” value ([4]; 20 ppm) was “++” and the “growing conditions (growth of germ)” value ([4]; 50 ppm) was “-”. For the same compound, the “growing conditions (growth of germ)” value ([4]; 100 ppm) was “-”, the “growing conditions (growth of germ)” value ([4]; 200 ppm) was “-” and the “Length of disease spot” value ([5]; 500 ppm, after 3 days) was 0 mm. For the same compound, the “Length of disease spot” value ([5]; 500 ppm, after 5 days) was 0 mm, the “Length of disease spot” value ([5]; 500 ppm, after 7 days) was 0.2 mm and the “Length of disease spot” value ([5]; 1000 ppm, after 3 days) was 0 mm. The “Length of disease spot” value ([5]; 1000 ppm, after 5 days) was 0 mm, the “Length of disease spot” value ([5]; 1000 ppm, after 7 days) was 0 mm and the “Length of disease spot” value ([5]; 2500 ppm, after 3 days) was 0 mm. For the same compound, the “Length of disease spot” value ([5]; 2500 ppm, after 5 days) was 0 mm, the “Length of disease spot” value ([5]; 2500 ppm, after 7 days) was 0 mm and the “Germicidal damage to seedlings” value ([6]; 2500 ppm) was “none”. The “Percentage of leaf area with disease spots” value ([6]; 2500 ppm) was 0%, the “Percentage of leaves attacked with the disease” value ([6]; 2500 ppm) was 0% and the “Prevention value per leaf (Perfect prevention = 100)” value ([6]; 2500 ppm) was 100. For the same compound, the “Germicidal damage to seedlings” value ([6]; 5000 ppm) was “none”, the “Percentage of leaf area with disease spots” value ([6]; 5000 ppm) was 0% and the “Percentage of leaves attacked with the disease” value ([6]; 5000 ppm) was 0%. For the same compound, the “Prevention value per leaf (Perfect prevention = 100)” value ([6]; 5000 ppm) was 100, the “growing conditions (growth of germ)” value ([7]; 10 ppm) was “+” and the “growing conditions (growth of germ)” value ([7]; 20 ppm) was “-”. The “growing conditions (growth of germ)” value ([7]; 50 ppm) was “-”, the “growing conditions (growth of germ)” value ([7]; 100 ppm) was “-” and the “growing conditions (growth of germ)” value ([7]; 200 ppm) was “-”. The “lengths of disease spots” value ([8]; fifth day) was 5.2 mm, the “lengths of disease spots” value ([8]; seventh day) was 5.2 mm and the “lengths of disease spots” value ([8]; third day) was 5.1 mm. The “growing conditions (growth of germ)” value ([9]; 10 ppm) was “+++”, the “growing conditions (growth of germ)” value ([9]; 20 ppm) was “++” and the “growing conditions (growth of germ)” value ([9]; 50 ppm) was “-”. For the same compound, the “growing conditions (growth of germ)” value ([9]; 100 ppm) was “-”, the “growing conditions (growth of germ)” value ([9]; 200 ppm) was “-” and the “growing conditions (growth of germ)” value ([10]; 10 ppm) was “+”. For the same compound, the “growing conditions (growth of germ)” value ([10]; 20 ppm) was “+”, the “growing conditions (growth of germ)” value ([10]; 50 ppm) was “-” and the “growing conditions (growth of germ)” value ([10]; 100 ppm) was “-”. For the same compound, the “growing conditions (growth of germ)” value ([10]; 200 ppm) was “-”, the “growing conditions (growth of germ)” value ([11]; 10 ppm) was “-” and the “growing conditions (growth of germ)” value ([11]; 20 ppm) was “-”. For the same compound, the “growing conditions (growth of germ)” value ([11]; 50 ppm) was “-”, the “growing conditions (growth of germ)” value ([11]; 100 ppm) was “-” and the “growing conditions (growth of germ)” value ([11]; 200 ppm) was “-”. For the same compound, the “growing conditions (growth of germ)” value ([12]; 10 ppm) was “+++”, the “growing conditions (growth of germ)” value ([12]; 20 ppm) was “+++” and the “growing conditions (growth of germ)” value ([12]; 50 ppm) was “-”. For the same compound, the “growing conditions (growth of germ)” value ([12]; 100 ppm) was “-”, the “growing conditions (growth of germ)” value ([12]; 200 ppm) was “-” and the “growing conditions (growth of germ)” value ([13]; 10 ppm) was “+”. The “growing conditions (growth of germ)” value ([13]; 20 ppm) was “-”, the “growing conditions (growth of germ)” value ([13]; 50 ppm) was “-” and the “growing conditions (growth of germ)” value ([13]; 100 ppm) was “-”. For the same compound, the “growing conditions (growth of germ)” value ([13]; 200 ppm) was “-”.
